Patent US8017612B2, “Piperazine compound and use thereof as a HCV polymerase inhibitor” (priority 2006, dated 2011)

Tests used:
[1] = biological target: T1, HCV polymerase (NS5B) type 1a (Hepatitis C virus genotype 1a, UniProt P26664); assay: Assay of enzyme (HCV polymerase) inhibitory activity, type 1a enzyme; assay type: biochemical, HCV type 1a (cloned from the blood of patients); conditions: HCV polymerase inhibitory activity IC50, 1a, type 1a enzyme
T1 construct: made in house; host or cells: Escherichia coli (by the 'similar method' of the 1b enzyme)
Summary of the method: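 His-tagged NS5B, C-terminal 47 residues deleted, type 1a at 1.5 μg/ml, with 5 μg/ml HCV 3′UTR substrate RNA, 50 μM ATP/GTP/CTP, 2 μM UTP plus [3H]UTP, pH 7.5 Tris, 5 mM MgCl2; 60 min at 25° C. TCA-precipitated RNA counted by scintillation; IC50 from radioactivity with vs. without compound.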

[2] = biological target: T2, HCV polymerase (NS5B) type 1b (Hepatitis C virus genotype 1b, UniProt P26663); assay: Assay of enzyme (HCV polymerase) inhibitory activity, type 1b enzyme; assay type: biochemical, HCV BK strain (type 1b); conditions: HCV polymerase inhibitory activity IC50, 1b, type 1b enzyme
T2 construct: a region encoding NS5B (J Virol 1991 March, 65(3), 1105-13, 544 amino acids after deletion of 47 amino acids on the C-terminal); 6xHis (C); made in house; host or cells: Escherichia coli
Summary of the method: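 His-tagged, C-terminally truncated NS5B (BK strain, 1b; 0.5 μg/ml) incubated with compound 60 min at 25 °C on 3′UTR-derived substrate RNA (5 μg/ml), 50 μM ATP/GTP/CTP, 2 μM UTP plus [3H]UTP, pH 7.5. Acid-precipitated RNA counted; IC50 from radioactivity with and without compound.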

Compound	IC50 [1]	IC50 [2]
CCc1ccc(S(=O)(=O)N2CCN(c3cnc(C(=O)O)cn3)C[C@@H]2C(=O)NCc2ccc(OC(F)(F)F)cc2)cc1 [Example 786, (R)-4-(4-ethyl-benzenesulfonyl)-3-(4-trifluoromethoxy-benzylcarbamoyl)-3,4,5,6-tetrahydro-2H-[1,2′]bipyrazinyl-5′-carboxylic acid]	< 100 nM	< 100 nM
O=C(O)c1cnc(N2CCN(S(=O)(=O)c3ccc(Br)s3)[C@@H](C(=O)NCc3ccc(OC(F)(F)F)cc3)C2)cn1 [Example 787, (R)-4-(5-bromo-thiophene-2-sulfonyl)-3-(4-trifluoromethoxy-benzylcarbamoyl)-3,4,5,6-tetrahydro-2H-[1,2′]bipyrazinyl-5′-carboxylic acid]	< 100 nM	< 100 nM
O=C(O)c1cnc(N2CCN(S(=O)(=O)c3ccc(N4CCCC4)cc3)[C@@H](C(=O)NCc3ccc(OC(F)(F)F)cc3)C2)cn1 [Example 788, (R)-4-(4-pyrrolidin-1-yl-benzenesulfonyl)-3-(4-trifluoromethoxy-benzylcarbamoyl)-3,4,5,6-tetrahydro-2H-[1,2′]bipyrazinyl-5′-carboxylic acid]	< 100 nM	< 100 nM
O=C(NCc1ccc(OC(F)(F)F)cc1)[C@H]1CN(c2cnc3cncnc3n2)CCN1S(=O)(=O)c1ccc(Br)s1 [Example 789, (R)-1-(5-bromo-thiophene-2-sulfonyl)-4-pteridin-7-yl-piperazine-2-carboxylic acid 4-trifluoromethoxy-benzylamide]	< 100 nM	< 100 nM
O=C(NCc1ccc(OC(F)(F)F)cc1)[C@H]1CN(c2cnc3cncnc3n2)CCN1S(=O)(=O)c1ccc([N+](=O)[O-])cc1 [Example 790, (R)-1-(4-nitro-benzenesulfonyl)-4-pteridin-7-yl-piperazine-2-carboxylic acid 4-trifluoromethoxy-benzylamide]	< 100 nM	< 100 nM
O=C(NCc1ccc(OC(F)(F)F)cc1)[C@H]1CN(c2cnc3cncnc3n2)CCN1S(=O)(=O)c1ccc(C(F)(F)F)cc1 [Example 791, (R)-4-pteridin-7-yl-1-(4-trifluoromethyl-benzenesulfonyl)-piperazine-2-carboxylic acid 4-trifluoromethoxy-benzylamide]	< 100 nM	< 100 nM
O=C(NCc1ccc(OC(F)(F)F)cc1)[C@H]1CN(c2cnc3cncnc3n2)CCN1S(=O)(=O)c1ccc(Cl)s1 [Example 792, (R)-1-(5-chloro-thiophene-2-sulfonyl)-4-pteridin-7-yl-piperazine-2-carboxylic acid 4-trifluoromethoxy-benzylamide]	< 100 nM	< 100 nM
O=C(NCc1ccc(OC(F)(F)F)cc1)[C@H]1CN(c2ccc3ncccc3n2)CCN1S(=O)(=O)c1ccc(OC(F)(F)F)cc1 [Example 793, (R)-4-[1,5]naphthyridin-2-yl-1-(4-trifluoromethoxy-benzenesulfonyl)-piperazine-2-carboxylic acid 4-trifluoromethoxy-benzylamide]	< 100 nM	< 100 nM
O=C(NCc1ccc(OC(F)(F)F)cc1)[C@H]1CN(c2nc3nccnc3s2)CCN1S(=O)(=O)c1ccc(OC(F)(F)F)cc1 [Example 794, (R)-4-thiazolo[4,5-b]pyrazin-2-yl-1-(4-trifluoromethoxy-benzenesulfonyl)-piperazine-2-carboxylic acid 4-trifluoromethoxy-benzylamide]	< 100 nM	< 100 nM
O=C(NCc1c(F)c(F)c(C(F)(F)F)c(F)c1F)[C@H]1CN(c2cnc3cncnc3n2)CCN1S(=O)(=O)c1ccc(OC(F)(F)F)cc1 [Example 795, (R)-4-pteridin-7-yl-1-(4-trifluoromethoxy-benzenesulfonyl)-piperazine-2-carboxylic acid 2,3,5,6-tetrafluoro-4-trifluoromethyl-benzylamide]	< 100 nM	< 100 nM
CCc1ccc(S(=O)(=O)N2CCN(c3cnc(CO)cn3)C[C@@H]2C(=O)NCc2ccc(OC(F)(F)F)cc2)cc1 [Example 796, (R)-4-(4-ethyl-benzenesulfonyl)-5′-hydroxymethyl-3,4,5,6-tetrahydro-2H-[1,2′]bipyrazinyl-3-carboxylic acid 4-trifluoromethoxy-benzylamide]	< 100 nM	< 100 nM
O=C(NCc1c(Cl)cc(Cl)cc1Cl)[C@H]1CN(c2cnc3cncnc3n2)CCN1S(=O)(=O)c1ccc(OC(F)(F)F)cc1 [Example 797, (R)-4-pteridin-7-yl-1-(4-trifluoromethoxy-benzenesulfonyl)-piperazine-2-carboxylic acid 2,4,6-trichloro-benzylamide]	< 100 nM	< 100 nM
O=C(NCc1ccc(OC(F)(F)F)cc1)[C@H]1CN(c2cnc3cnc(C(F)(F)F)nc3n2)CCN1S(=O)(=O)c1ccc(OC(F)(F)F)cc1 [Example 798, (R)-1-(4-trifluoromethoxy-benzenesulfonyl)-4-(2-trifluoromethyl-pteridin-7-yl)-piperazine-2-carboxylic acid 4-trifluoromethoxy-benzylamide]	100 to 1000 nM	< 100 nM
O=C(NCc1ccc(OC(F)(F)F)cc1)[C@H]1CN(c2cnc3cncc(Br)c3n2)CCN1S(=O)(=O)c1ccc(OC(F)(F)F)cc1 [Example 799, (R)-4-(8-bromo-pyrido[3,4-b]pyrazin-2-yl)-1-(4-trifluoromethoxy-benzenesulfonyl)-piperazine-2-carboxylic acid 4-trifluoromethoxy-benzylamide]	< 100 nM	< 100 nM
O=C(NCc1ccc(OC(F)(F)F)cc1)[C@H]1CN(c2nc3nc(Cl)nc(Cl)c3s2)CCN1S(=O)(=O)c1ccc(OC(F)(F)F)cc1 [Example 800, (R)-4-(5,7-dichloro-thiazolo[4,5-d]pyrimidin-2-yl)-1-(4-trifluoromethoxy-benzenesulfonyl)-piperazine-2-carboxylic acid 4-trifluoromethoxy-benzylamide]	< 100 nM	< 100 nM
O=C(NCc1ccc(OC(F)(F)F)cc1)[C@H]1CN(c2nc3ncncc3s2)CCN1S(=O)(=O)c1ccc(OC(F)(F)F)cc1 [Example 801, (R)-4-thiazolo[4,5-d]pyrimidin-2-yl-1-(4-trifluoromethoxy-benzenesulfonyl)-piperazine-2-carboxylic acid 4-trifluoromethoxy-benzylamide]	< 100 nM	< 100 nM
O=C(NCc1ccc(OC(F)(F)F)cc1)[C@H]1CN(c2nc3nc(Cl)ncc3s2)CCN1S(=O)(=O)c1ccc(OC(F)(F)F)cc1 [Example 802, (R)-4-(5-chloro-thiazolo[4,5-d]pyrimidin-2-yl)-1-(4-trifluoromethoxy-benzenesulfonyl)-piperazine-2-carboxylic acid 4-trifluoromethoxy-benzylamide]	< 100 nM	< 100 nM
O=C(NCc1ccc(OC(F)(F)F)cc1)[C@H]1CN(c2nc3c(=O)[nH][nH]c(=O)c3s2)CCN1S(=O)(=O)c1ccc(OC(F)(F)F)cc1 [Example 803, (R)-4-(4,7-dioxo-4,5,6,7-tetrahydro-thiazolo[4,5-d]pyridazin-2-yl)-1-(4-trifluoromethoxy-benzenesulfonyl)-piperazine-2-carboxylic acid 4-trifluoromethoxy-benzylamide]	< 100 nM	< 100 nM
O=C(NCC12CC3CC(CC(C3)C1)C2)[C@H]1CN(c2cnc3cncnc3n2)CCN1S(=O)(=O)c1ccc(OC(F)(F)F)cc1 [Example 804, (R)-4-pteridin-7-yl-1-(4-trifluoromethoxy-benzenesulfonyl)-piperazine-2-carboxylic acid (adamantan-1-ylmethyl)-amide]	> 1000 nM	> 1000 nM
O=C(NCc1ccc(OC(F)(F)F)cc1)[C@H]1CN(c2nc3cn[nH]c(=O)c3s2)CCN1S(=O)(=O)c1ccc(OC(F)(F)F)cc1 [Example 805, (R)-4-(7-oxo-6,7-dihydrothiazolo[4,5-d]pyridazin-2-yl)-1-(4-trifluoromethoxy-benzenesulfonyl)-piperazine-2-carboxylic acid 4-trifluoromethoxy-benzylamide]	< 100 nM	< 100 nM
O=C(O)c1cncc2ncc(N3CCN(S(=O)(=O)c4ccc(OC(F)(F)F)cc4)[C@@H](C(=O)NCc4ccc(OC(F)(F)F)cc4)C3)nc12 [Example 806, 2-[(R)-4-(4-trifluoromethoxy-benzenesulfonyl)-3-(4-trifluoromethoxy-benzylcarbamoyl)-piperazin-1-yl]-pyrido[3,4-b]pyrazine-8-carboxylic acid]	< 100 nM	< 100 nM
NC(=O)c1cncc2ncc(N3CCN(S(=O)(=O)c4ccc(OC(F)(F)F)cc4)[C@@H](C(=O)NCc4ccc(OC(F)(F)F)cc4)C3)nc12 [Example 807, 2-[(R)-4-(4-trifluoromethoxy-benzenesulfonyl)-3-(4-trifluoromethoxy-benzylcarbamoyl)-piperazin-1-yl]-pyrido[3,4-b]pyrazine-8-carboxylic acid amide]	< 100 nM	< 100 nM
O=C(O)CCc1cncc2ncc(N3CCN(S(=O)(=O)c4ccc(OC(F)(F)F)cc4)[C@@H](C(=O)NCc4ccc(OC(F)(F)F)cc4)C3)nc12 [Example 808, 3-{2-[(R)-4-(4-trifluoromethoxy-benzenesulfonyl)-3-(4-trifluoromethoxy-benzylcarbamoyl)-piperazin-1-yl]-pyrido[3,4-b]pyrazin-8-yl}-propionic acid]	< 100 nM	< 100 nM
